# Values of other authors, collected in patent US20240228966A1, “UROLITHIN FOR INCREASING STEM CELL FUNCTION” (SOCIETE DES PRODUITS NESTLE S.A., priority 2021, published 2024).
# Tested on: human HSCs
# Conditions: culture media supplemented with nicotinamide riboside; cited from earlier work
compound,measurement,value
NC(=O)c1ccc[n+]([C@@H]2O[C@H](CO)[C@@H](O)[C@H]2O)c1 [nicotinamide riboside],levels of engraftment in recipient humanised mice,significantly higher levels of engraftment
